Experiments:
Assay type in all cases: biochemical
HDAC9 enzyme = target: T1, HDAC9 enzyme (Homo sapiens, UniProt Q9UKV0); assay: HDAC9 Enzyme Inhibitory Assay (HDAC-Glo class IIa); settings: 1 μM test compound, wells without enzyme = 100% inhibition; for inhibition at 1 µM: read-out: HDAC9 inhibitory rate (%) (1 μM)
T1 construct: transducing full length HDAC9 gene into Sf-9 insect cells; made in house; host or cells: Sf-9 insect cells
Experimental: HDAC9 Enzyme Inhibitory Assay
Enzyme was prepared by transducing full length HDAC9 gene into Sf-9 insect cells and purifying by Ni-NTA affinity column, and HDAC9 enzyme inhibitory activity was evaluated. Enzymes were used after preserved at −70° C. HDAC9 enzyme inhibitory activity of the test compound was measured using HDAC-Glo class IIa (Promega) according to the following experimental method. The test compound diluted with assay buffer (24 mM Tris-HCl (pH 7.5), 1 mM MgCl2, 0.35 mM KCl, 135 mM NaCl, 0.6 mM Glutathione, 0.01% Tween-20) was added to a 384-well plate by each 2 μL. Then, HDAC9 enzyme solution diluted with assay buffer was added thereto by each 2 μL, and the plate was incubated at room temperature for 60 min. After incubated, HDAC substrate-Developer solution prepared according to Promega protocol was added to the 384-well plate by each 4 μL, and the enzyme reaction was started. After reacting at room temperature for 20 min, luminescence level was measured using plate reader Envision (PerkinElmer). The inhibitory activity of each compound was calculated as a relative activity value when luminescence level in wells without enzyme is considered as 100% inhibition.

HDAC6 enzyme = target: T2, HDAC6 enzyme (Homo sapiens, UniProt Q9UBN7); assay: HDAC1/6 Enzyme Inhibitory Assay (HDAC-Glo I/II Assay kit), HDAC6; settings: 1 μM test compound, wells without enzyme = 100% inhibition; for inhibition at 1 µM: read-out: HDAC6 inhibitory rate (%) (1 μM)
T2 construct: transducing full length HDAC1 and HDAC6 genes into Sf-9 insect cells; GST; purchased SignalChem; host or cells: Sf-9 insect cells
T2 sequence (Q9UBN7 1-1215): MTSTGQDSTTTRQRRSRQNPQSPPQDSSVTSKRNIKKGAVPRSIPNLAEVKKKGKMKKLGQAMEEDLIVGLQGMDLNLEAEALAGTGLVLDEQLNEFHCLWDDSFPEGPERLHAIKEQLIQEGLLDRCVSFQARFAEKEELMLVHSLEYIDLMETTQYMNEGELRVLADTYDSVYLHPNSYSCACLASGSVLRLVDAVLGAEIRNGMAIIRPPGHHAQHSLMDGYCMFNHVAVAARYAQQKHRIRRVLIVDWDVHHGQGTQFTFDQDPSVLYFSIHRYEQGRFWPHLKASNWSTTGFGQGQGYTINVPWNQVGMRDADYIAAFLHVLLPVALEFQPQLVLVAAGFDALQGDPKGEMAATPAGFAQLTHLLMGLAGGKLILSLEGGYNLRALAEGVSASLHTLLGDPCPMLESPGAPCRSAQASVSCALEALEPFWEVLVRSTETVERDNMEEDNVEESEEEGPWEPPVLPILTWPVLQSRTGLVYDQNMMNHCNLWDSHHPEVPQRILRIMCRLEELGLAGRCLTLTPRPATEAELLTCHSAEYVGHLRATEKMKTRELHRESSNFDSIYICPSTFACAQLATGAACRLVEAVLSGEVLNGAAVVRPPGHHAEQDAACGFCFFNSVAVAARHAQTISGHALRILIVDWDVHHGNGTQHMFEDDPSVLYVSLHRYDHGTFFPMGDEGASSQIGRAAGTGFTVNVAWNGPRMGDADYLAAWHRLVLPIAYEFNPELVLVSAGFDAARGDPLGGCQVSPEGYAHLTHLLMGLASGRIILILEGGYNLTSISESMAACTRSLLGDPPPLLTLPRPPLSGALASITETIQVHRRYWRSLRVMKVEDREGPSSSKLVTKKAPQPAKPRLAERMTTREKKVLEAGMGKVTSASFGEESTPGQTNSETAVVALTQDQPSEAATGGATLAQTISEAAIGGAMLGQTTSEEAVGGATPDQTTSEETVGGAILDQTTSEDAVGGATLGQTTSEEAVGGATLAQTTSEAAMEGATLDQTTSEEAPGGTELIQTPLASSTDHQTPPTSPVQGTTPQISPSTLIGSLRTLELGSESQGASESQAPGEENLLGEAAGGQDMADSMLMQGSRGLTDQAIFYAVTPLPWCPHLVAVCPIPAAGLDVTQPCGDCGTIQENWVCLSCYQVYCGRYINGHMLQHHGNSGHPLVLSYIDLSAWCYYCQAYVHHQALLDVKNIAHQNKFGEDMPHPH
Experimental: (§1) HDAC1/6 Enzyme Inhibitory Assay
(§2) HDAC1 enzyme and HDAC6 enzyme each prepared by transducing full length HDAC1 and HDAC6 genes into Sf-9 insect cells and purifying by GST affinity column were purchased from SignalChem. Using these enzymes, HDAC1 and/or HDAC6 enzyme inhibitory activities of the compound of the present invention were evaluated. Enzymes were used after preserved at −70° C. HDAC1 or HDAC6 enzyme inhibitory activity of the compound of the present invention was measured using HDAC-Glo™ I/II Assay kit (Promega) according to the following experimental method. The test compound diluted with assay buffer (24 mM Tris-HCl (pH 7.5), 1 mM MgCl2, 0.35 mM KCl, 135 mM NaCl, 0.6 mM Glutathione, 0.01% Tween-20) was added to a 384-well plate by each 2 μL. Then, HDAC1 or HDAC6 enzyme solution diluted with assay buffer was added thereto by each 4 μL, and the plate was incubated at room temperature for 60 min. After incubated, HDAC substrate-Developer solution prepared according to Promega protocol attached to the assay kit was added to the 384-well plate by each 2 μL, and the enzyme reaction was started. After reacting at room temperature for 20 min, luminescence level was measured using plate reader Envision (PerkinElmer). The inhibitory activity of each compound was calculated as a relative activity value when luminescence level in wells without enzyme is considered as 100% inhibition.

HDAC1 enzyme = target: T3, HDAC1 enzyme (Homo sapiens, UniProt Q13547); assay: HDAC1/6 Enzyme Inhibitory Assay (HDAC-Glo I/II Assay kit), HDAC1; settings: 1 μM test compound, wells without enzyme = 100% inhibition; for inhibition at 1 µM: read-out: HDAC1 inhibitory rate (%) (1 μM)
T3 construct: transducing full length HDAC1 and HDAC6 genes into Sf-9 insect cells; GST; purchased SignalChem; host or cells: Sf-9 insect cells
Experimental: as §1, §2

T1 sequence (Q9UKV0 whole entry, species assumed): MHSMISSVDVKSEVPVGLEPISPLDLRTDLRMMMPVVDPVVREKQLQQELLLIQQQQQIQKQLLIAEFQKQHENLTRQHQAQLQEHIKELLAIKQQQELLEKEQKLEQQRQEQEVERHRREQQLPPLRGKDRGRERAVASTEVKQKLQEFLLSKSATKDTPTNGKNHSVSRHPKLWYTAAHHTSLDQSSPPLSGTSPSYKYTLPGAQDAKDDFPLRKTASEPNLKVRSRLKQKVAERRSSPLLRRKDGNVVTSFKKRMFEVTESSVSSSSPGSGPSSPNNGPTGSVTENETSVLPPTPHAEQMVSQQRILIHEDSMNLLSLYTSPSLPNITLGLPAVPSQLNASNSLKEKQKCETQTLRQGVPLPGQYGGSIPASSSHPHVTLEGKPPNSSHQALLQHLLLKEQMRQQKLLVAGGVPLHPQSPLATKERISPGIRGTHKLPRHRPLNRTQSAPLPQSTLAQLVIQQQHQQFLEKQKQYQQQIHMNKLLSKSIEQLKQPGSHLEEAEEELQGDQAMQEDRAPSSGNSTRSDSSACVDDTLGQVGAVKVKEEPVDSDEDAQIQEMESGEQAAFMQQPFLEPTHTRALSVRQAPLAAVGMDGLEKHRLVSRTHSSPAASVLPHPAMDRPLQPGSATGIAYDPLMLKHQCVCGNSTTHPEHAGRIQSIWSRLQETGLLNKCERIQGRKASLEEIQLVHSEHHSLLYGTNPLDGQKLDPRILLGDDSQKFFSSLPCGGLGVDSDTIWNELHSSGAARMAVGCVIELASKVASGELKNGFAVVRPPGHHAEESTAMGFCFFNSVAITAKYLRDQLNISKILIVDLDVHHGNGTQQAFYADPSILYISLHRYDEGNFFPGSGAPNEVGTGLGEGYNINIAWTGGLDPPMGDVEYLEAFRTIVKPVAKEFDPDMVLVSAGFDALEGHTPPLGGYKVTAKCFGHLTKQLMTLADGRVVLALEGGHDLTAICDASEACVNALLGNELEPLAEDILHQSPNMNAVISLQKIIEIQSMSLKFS
T3 sequence (Q13547 whole entry): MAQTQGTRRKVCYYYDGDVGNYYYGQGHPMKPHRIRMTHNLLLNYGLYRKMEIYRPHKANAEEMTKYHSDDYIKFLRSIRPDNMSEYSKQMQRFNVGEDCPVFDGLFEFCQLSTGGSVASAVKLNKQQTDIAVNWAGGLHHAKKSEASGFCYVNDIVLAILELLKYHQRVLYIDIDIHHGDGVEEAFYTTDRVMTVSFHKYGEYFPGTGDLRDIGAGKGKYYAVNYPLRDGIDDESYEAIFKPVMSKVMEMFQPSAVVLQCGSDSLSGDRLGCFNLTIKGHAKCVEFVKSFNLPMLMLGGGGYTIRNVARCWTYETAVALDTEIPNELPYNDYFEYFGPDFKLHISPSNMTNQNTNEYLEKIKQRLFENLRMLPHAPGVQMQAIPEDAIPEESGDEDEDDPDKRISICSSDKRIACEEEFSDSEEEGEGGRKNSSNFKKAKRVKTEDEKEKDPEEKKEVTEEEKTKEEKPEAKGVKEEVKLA

SMILES | inhibition at 1 µM (HDAC9 enzyme) [%] | inhibition at 1 µM (HDAC6 enzyme) [%] | HDAC1 inhibitory rate (%) (1 μM) (HDAC1 enzyme) | HDAC9 inhibitory rate (%) (1 μM) (HDAC9 enzyme; 1 µM) | HDAC6 inhibitory rate (%) (1 μM) (HDAC6 enzyme) | inhibition at 1 µM (HDAC1 enzyme) [%]
O=C1c2cc(-c3noc(C(F)(F)F)n3)ccc2CN1[C@@H]1CCOC[C@H]1c1ccccc1 (relative stereo) [Example 34, trans-2-(3-phenyltetrahydro-2H-pyran-4-yl)-6-(5-(trifluoromethyl)-1,2,4-oxadiazol-3-yl)isoindolin-1-one] | 96 | 99 | 90 | – | – | –
O=C1c2cc(-c3noc(C(F)(F)F)n3)ccc2CN1[C@@H]1CCOC[C@H]1c1ccccc1 (relative stereo) [Example 35, trans-2-(3-phenyltetrahydro-2H-pyran-4-yl)-6-(5-(trifluoromethyl)-1,2,4-oxadiazol-3-yl)isoindolin-1-one] | – | – | 50 | 91 | 99 | –
O=C1c2cc(-c3noc(C(F)(F)F)n3)ccc2CN1[C@@H]1CCNC[C@H]1c1ccc(F)cc1 (relative stereo) [Example 45, 2-(trans-3-(4-fluorophenyl)piperidin-4-yl)-6-(5-(trifluoromethyl)-1,2,4-oxadiazol-3-yl)isoindolin-1-one] | 99 | 100 | – | – | – | 94
O=C1c2cc(-c3noc(C(F)(F)F)n3)ccc2CN1[C@@H]1CCNC[C@H]1c1ccc(F)c(F)c1 (relative stereo) [Example 46, 2-(trans-3-(3,4-difluorophenyl)piperidin-4-yl)-6-(5-(trifluoromethyl)-1,2,4-oxadiazol-3-yl)isoindolin-1-one] | 99 | 99 | – | – | – | 94
Cc1ccc([C@@H]2CNCC[C@H]2N2Cc3ccc(-c4noc(C(F)(F)F)n4)cc3C2=O)cc1 (relative stereo) [Example 47, 2-(trans-3-(4-methylphenyl)piperidin-4-yl)-6-(5-(trifluoromethyl)-1,2,4-oxadiazol-3-yl)isoindolin-1-one] | 99 | 95 | – | – | – | 90
Cc1ccc([C@@H]2CNCC[C@H]2N2Cc3ccc(-c4noc(C(F)(F)F)n4)cc3C2=O)cc1F (relative stereo) [Example 48, 2-(trans-3-(3-fluoro-4-methylphenyl)piperidin-4-yl)-6-(5-(trifluoromethyl)-1,2,4-oxadiazol-3-yl)isoindolin-1-one] | 98 | 99 | – | – | – | 90
Cc1cc([C@@H]2CNCC[C@H]2N2Cc3ccc(-c4noc(C(F)(F)F)n4)cc3C2=O)ccc1F (relative stereo) [Example 49, 2-(trans-3-(4-fluoro-3-methylphenyl)piperidin-4-yl)-6-(5-(trifluoromethyl)-1,2,4-oxadiazol-3-yl)isoindolin-1-one] | 99 | 100 | – | – | – | 96
Cc1cc(F)ccc1[C@@H]1CNCC[C@H]1N1Cc2ccc(-c3noc(C(F)(F)F)n3)cc2C1=O (relative stereo) [Example 50, 2-(trans-3-(4-fluoro-2-methylphenyl)piperidin-4-yl)-6-(5-(trifluoromethyl)-1,2,4-oxadiazol-3-yl)isoindolin-1-one] | 99 | 98 | – | – | – | 93
O=C1c2cc(-c3noc(C(F)(F)F)n3)ccc2CN1[C@@H]1CCNC[C@H]1c1ccc(Cl)c(F)c1 (relative stereo) [Example 52, 2-(trans-3-(4-chloro-3-fluorophenyl)piperidin-4-yl)-6-(5-(trifluoromethyl)-1,2,4-oxadiazol-3-yl)isoindolin-1-one] | 99 | 97 | – | – | – | 97
O=C1c2cc(-c3noc(C(F)(F)F)n3)ccc2CN1[C@@H]1CCNC[C@H]1c1cccc(Cl)c1 (relative stereo) [Example 53, 2-(trans-3-(3-chlorophenyl)piperidin-4-yl)-6-(5-(trifluoromethyl)-1,2,4-oxadiazol-3-yl)isoindolin-1-one] | 99 | 97 | – | – | – | 98
O=C1c2cc(-c3noc(C(F)(F)F)n3)ccc2CN1[C@@H]1CCNC[C@H]1c1ccc(F)c(Cl)c1 (relative stereo) [Example 54, 2-(trans-3-(3-chloro-4-fluorophenyl)piperidin-4-yl)-6-(5-(trifluoromethyl)-1,2,4-oxadiazol-3-yl)isoindolin-1-one] | 99 | 100 | – | – | – | 93
COc1ccc([C@@H]2CNCC[C@H]2N2Cc3ccc(-c4noc(C(F)(F)F)n4)cc3C2=O)cc1 (relative stereo) [Example 55, 2-(trans-3-(4-methoxyphenyl)piperidin-4-yl)-6-(5-(trifluoromethyl)-1,2,4-oxadiazol-3-yl)isoindolin-1-one] | 99 | 96 | – | – | – | 95
Cc1ccc([C@@H]2CNCC[C@H]2N2Cc3ccc(-c4noc(C(F)(F)F)n4)cc3C2=O)cc1Cl (relative stereo) [Example 56, 2-(trans-3-(3-chloro-4-methylphenyl)piperidin-4-yl)-6-(5-(trifluoromethyl)-1,2,4-oxadiazol-3-yl)isoindolin-1-one] | 99 | 97 | – | – | – | 93
Cc1cc([C@@H]2CNCC[C@H]2N2Cc3ccc(-c4noc(C(F)(F)F)n4)cc3C2=O)ccc1Cl (relative stereo) [Example 57, 2-(trans-3-(4-chloro-3-methylphenyl)piperidin-4-yl)-6-(5-(trifluoromethyl)-1,2,4-oxadiazol-3-yl)isoindolin-1-one] | 99 | 94 | – | – | – | 93
O=C1c2cc(-c3noc(C(F)(F)F)n3)ccc2CN1[C@H]1CCCC[C@@H]1N1CCOCC1 (relative stereo) [Example 59, 2-(trans-2-(morpholin-4-yl)cyclohexyl)-6-(5-(trifluoromethyl)-1,2,4-oxadiazol-3-yl)isoindolin-1-one] | 91 | 97 | – | – | – | 60

Reference: patent publication US10308643B2, “Heterocyclic compound” (Takeda Pharmaceutical Company Limited, priority 2015, dated 2019)
